Source: patent US7736630B2, “Products for preventing penetration into the skin” (priority 2002, dated 2010)
Where two headings read alike, the source gives them in different places.

Assay: Skin permeation and skin accumulation in Franz diffusion cells
Format: in vitro ADME, nude mice (CD1)
Method: The permeation of pure OMC and Di(4-methoxycinnamoyl)jojobadiol (two —OH groups esterified) was measured by using dorsal skin of male, 7 weeks old, nude mice (CD1, Weizmann Institute, Israel).
The experiments were carried out for 24 hours at 37° C. in Franz diffusion cells. Samples of 200 μl were taken at 1, 2, 4, 6, 8 and 24 hours. 10 mg of each compound were applied on each skin (area—1.77 cm^2). The receiver compartment contained EtOH:H2O (1:1). At the end of the experiment the skin was cleaned and the skins were extracted with 10 ml EtOH. The amounts of the OMC and derivative Di(4-methoxycinnamoyl)jojobadiol were assayed by HPLC.

Q: Which results are given for CCCCC(CC)COC(=O)C=Cc1ccc(OC)cc1 (stereo not shown) [OMC, octylmethoxycinnamate, reference compound]?
A: penetration/permeation across the skin (in words): permeates to the skin; amount penetrated as % of the dose applied on the skin (male, CD1 nude, mouse, 24 h): 8.76%; amount which penetrated into the skin at the end of permeation experiment (male, CD1 nude, mouse, 24 h): 876 ± 235 µg

Q: Which results are given for Di(4-methoxycinnamoyl)jojobadiol?
A: amount accumulated in the skin at the end of experiment (10 mg on 1.77 cm^2 skin, 24 hours, 37° C., skin extracted with 10 ml EtOH, FIG. 7): 900 ± 359 µg; penetration/permeation across the skin (in words) (24 hours in vitro permeation, lowest detectable concentration of the derivative by HPLC 0.8 μg/ml, FIG. 6): no penetration; penetration/permeation across the skin (in words) (24 hours in vitro permeation, lowest detectable concentration of the derivative by HPLC 0.8 μg/ml, FIG. 6, listed as di(4-methoxy-cinnamoyl)jojobadiol): does not; skin accumulation, OMC compared with Di(4-methoxycinnamoyl)jojobadiol (end of 24 hours experiment, FIG. 7): about third of the amount of the OMC
